The source of these data is publication PMC4492750, “The discovery of a selective and potent A2a agonist with extended lung retention” (Pharmacology Research & Perspectives, 2015).

Where only a bound is given, the exact number is not on record here.

A word on the EC50: it is the midpoint of the concentration-response curve. Usually IC50 stands for the concentration at which inhibition is half-maximal. A word on the logD: it is lipophilicity at a set pH, counting ionised and neutral species. A low value points to lower lipophilicity. In general, solubility refers to the dissolved amount per volume that the medium holds. Low values mean a poorly soluble substance, high ones a readily soluble substance.

Data set [1] deals with LPS-induced TNFα production in human PBMC. The data set can be described thus: LPS-induced TNFα production in primary human PBMC (hTNFα PBMC). Format: cell-based. On the procedure:
(§1) • Human A2a and A2b receptor pharmacology: Chinese hamster ovary CHO-K1 cells stably expressing human A2a and A2b receptors were used to determine substances agonistic potency and intrinsic activity. […] The signal corresponding to adenosine at 100 μmol/L was used to define 100% intrinsic activity. • Human A3 receptor pharmacology: A3 receptor Gi coupling was measured by GTPγ ^35[S] filter assay at serial dilutions of compound using membranes from Perkin-Elmer. The signal corresponding to the maximal response of NECA at 100 μmol/L was set to 100% intrinsic activity. • Lipopolysaccharide (LPS)-induced TNFα production in primary human peripheral blood mononuclear cells (hTNFα PBMC) and rat mononuclears (rTNFα splenocytes): Human PBMC and rat mononuclear spleen cells were incubated with serial dilutions of compound and stimulated with LPS.
Procedures and assays were run in R10 buffer (RPMI 1640 Medium supplemented with GlutaMAX™ and HEPES (GIBCO-BRL), 10% fetal calf serum, penicillin and streptomycin (each 5000IU/ml)). Human PBMC were purified from heparinised blood by Ficoll separation (Ficoll, Amersham Pharmacia Biotech AB, Cat: 17-1440-03, Lot: 312170) and rat mononuclear cells were collected after rat spleen perfusion. Both cell preparations were followed by hypotonic lysis of residual erythrocytes. Serial dilutions of compounds were pre-incubated with 200 000 cells/well (96-well plate) for 45min in 37 °C (190µl). Cells were stimulated by 10µl LPS (final concentration 0.5ng/ml human and 150ng/ml rat; SIGMA Cat: L-4516, Lot: 104K4036) for 18h at 37 °C. TNFα release was measured by ELISA (^TmR&D Systems plates) according to the manufacturer’s instructions in cell free supernatant.

Data set [2] concerns blood pressure and heart rate. Particulars: rat, in vivo. The source says:
A mixed effect model with fixed effects for time after dose, treatment groups, and number of doses, was set up for the analysis of the blood pressure and HR data (SAS v.9.2). A random intercept was included to allow for individual baseline blood pressures, as well as a random effect on the number of doses. Seven days before initiation of the dosing regimen, 24 rats were anaesthetized (isoflurane) and a small telemetry unit (PA-C10, Data Sciences International, USA) was placed subcutaneously on the left side of the throat with the catheter going into the left carotid artery. […] The compound was given by intratracheal instillation as described above, for 5 consecutive days, and blood pressure and heart rate were continuously recorded, apart from the brief period during compound administration.

Data set [3] has as its target T1, human A2b receptors (Homo sapiens, UniProt P29275).
T1 construct: expressed in transfected cells; host or cells: CHO-K1
T1 sequence (P29275 1-332): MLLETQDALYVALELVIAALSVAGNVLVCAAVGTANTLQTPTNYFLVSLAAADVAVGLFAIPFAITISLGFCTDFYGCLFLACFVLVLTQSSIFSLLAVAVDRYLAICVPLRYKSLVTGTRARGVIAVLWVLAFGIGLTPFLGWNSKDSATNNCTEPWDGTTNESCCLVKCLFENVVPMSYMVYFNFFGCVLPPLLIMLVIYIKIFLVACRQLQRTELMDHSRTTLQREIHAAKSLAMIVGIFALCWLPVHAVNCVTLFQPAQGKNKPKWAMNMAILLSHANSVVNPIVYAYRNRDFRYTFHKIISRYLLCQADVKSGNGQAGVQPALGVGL
As to the kind of experiment: Human A2b receptor pharmacology: cAMP Alphascreen in CHO-K1 cells. Particulars: average (SD). Format: cell-based. How it is done: as §1
Chinese hamster ovary CHO-K1 cells stably expressing human A2a and A2b receptors were stored as 1ml aliquots at -150 °C in freezing medium, thawed immediately prior to assay. […] Cells (10000 cells/well) were incubated with test compounds prepared as serial dilutions. Potency (EC50) and efficacy (% of maximal response) were calculated from data fitted to a 4-parameter logistic function. The signal of 10µM NECA represented the maximal cAMP response (i.e. 100% of efficacy) produced by these cells.

Data set [4] can be described thus: Plasma protein binding by equilibrium dialysis. The format is in vitro ADME. Particulars: male, Wistar, pH 7.4, rat plasma, 10 μmol/L, read-out: fu rat (free unbound drug in plasma). How it is done: as §1
The plasma protein binding was determined in plasma from male Wistar rats at a compound concentration of 10μM by equilibrium dialysis against a phosphate buffer at pH 7.4 using a semi-permeable membrane with a molecular cut-off of 6-8KDa (Spectra/Por, Spectrum Laboratories Inc, US). The compounds were dialyzed for 18h at 37±1°C in an air incubator on an orbital shaker. The samples were analysed using LC-MS/MS.

Data set [5] is described as follows: Lipophilicity (LogD), shake flask. Particulars: 1-octanol / phosphate buffer, octanol-water, phosphate buffer pH 7.4. Format: physicochemical. How it is done: as §1
The octanol-water partition coefficient (LogD) was measured using the shake flask method. 600µL of 1-octanol was added to a vial with 6µL of 10mM DMSO-solution of the test compound. 600µL of 10mM sodium phosphate buffer adjusted to pH 7.4 was added and equilibrium was performed by vigorous shaking for ten minutes with an Eppendorf mixer. The phases were separated by centrifugation. The samples were analysed by HPLC with UV-detection at 254nm.

The nature of data set [6]: Substance solubility in phosphate buffer. Format: physicochemical. Particulars: aqueous buffer, thermodynamic from solid; phosphate buffer pH 7.4, dry compound in solid state. How it is done:
as §1
Solubility was measured in phosphate buffer at pH 7.4 using dry compounds in solid state.

Consider `CCNC(=O)[C@H]1O[C@@H](n2cnc3c(NC(CC)CC)nc(NCCNC(=O)Nc4cc[n+](C)cc4)nc32)[C@H](O)[C@@H]1O` [Compound 2, (2S,3S,4R,5R)-N-ethyl-5-[6-(1-ethylpropylamino)-2-[2-[(1-methylpyridin-1-ium-4-yl)carbamoylamino]ethylamino]purin-9-yl]-3,4-dihydroxy-tetrahydrofuran-2-carboxamide], for which the EC50 turned out to be 0.5 nM in data set [1] (Homo sapiens, PBMC, read-out: EC50, inhibition of LPS stimulated TNFα release in human PBMC) and 3600 nM in data set [3]. Further, the IC50 in data set [1] (LPS-stimulated TNFα release, human PBMC, average (SD)) was 0.5 nM. In data set [1] (LPS-stimulated TNFα release, human PBMC, average (SD), read-out: Human TNFα PBMC Intrinsic activity), the Emax is 72.4%. Moreover, in data set [2], the “Tachyphylaxis for the HR” value is recorded as “did not demonstrate any tachyphylaxis”. The fraction unbound at 18 h, 10 μM in data set [4] was 0.44. Also, the logD at 10 min in data set [5] was under -1. In data set [6], the solubility is over 1000 µM.
